Assay results published in article PMC10223822, “Identification of the Hepatic Metabolites of Flumazenil and their Kinetic Application in Neuroimaging” (Pharmaceuticals, 2023).

Key:
[1] = Flumazenil biotransformation in rat liver homogenate (HPLC-DAD/tandem MS); format: in vitro ADME
Experimental: (§1) The quantification of flumazenil metabolism by hepatic enzymes was performed using HPLC (Agilent 1100 series, Palo Alto, CA, USA), which is comprised of an online degasser, a binary pump, an auto sampler, a thermostat column oven (maintained at 25 °C), and a diode array detector (DAD, 250 nm). Data were acquired and processed using the Agilent ChemStation software (ed. 10.02). Separation was achieved using a C18 column with a guard column and an ammonium acetate buffer–acetonitrile gradient elution. The mobile phase consisted of eluents A (5 mM ammonium acetate aqueous buffer with 1% ACN, pH 7.0) and B (ACN only) at a flow rate of 0.6 mL min^−1. These were mixed to separate the metabolites and flumazenil from the sample matrices, according to the gradient program shown in Table 1. The overall LC time for flumazenil biotransformation was 15 min. An analyte solution of 5 µL was injected using an auto-sampler thermostat at 4 °C.
(§2) Mass spectrometric analysis of flumazenil in ACN was initially conducted on a 4000 QTrap LC-MS/MS system using API Analyst software 1.4.1 (AB Sciex, Concord, ON, Canada) to obtain the appropriate MS parameters and m/z for flumazenil fragments. Samples were introduced into the spectrometer, either by the HPLC system (Agilent 1100) or by a syringe pump, at a flow rate of 10 µL min^−1 (Harvard Apparatus Inc., Holliston, MA, USA). Chromatographic separation was conducted as described in the HPLC conditions section. The analytes were ionized by a turbo spray ion source (electrospray ionization, [ESI]) in the positive-ion mode at 5000 V and 350 °C. Mass spectra were recorded within a range of 100–1000 amu with unit resolutions of Q1 and Q3. The LC-tandem MS determination of flumazenil concentration was conducted in the multiple reaction monitoring positive-ion mode with transition ion pairs 304 → 258 and 304 → 276. Vaporized liquid nitrogen gas was used as the nebulizer, curtain, and collision gas in all 4000 QTrap LC–MS/MS studies.
Normal rat livers were obtained from healthy male SD rats weighing 400–450 g. […]

[2] = Flumazenil metabolization in rat liver microsomes (LC-DAD/tandem MS); format: in vitro ADME
Experimental: as §1
as §2, with “Vaporized liquid nitrogen gas was used as the nebulizer, curtain, and collision gas in all 4000 QTrap LC–MS/MS studies.” left out
Incubation solutions were prepared according to the manufacturer’s instructions. […] The supernatants were filtered through a 0.22 µm PVDF disk filter and analyzed using LC-DAD and tandem MS. […]

[3] = In vitro serum stability of [18F]flumazenil (radio-TLC); conditions: for Radiochemical Purity (RCP, %) in serum: rat serum, 37 °C
Experimental: Serum preparation: healthy SD rats were deeply anesthetized with isoflurane gas (3% isoflurane in 50% oxygen, 1 mL/min). One milliliter of whole blood from healthy SD rats was withdrawn through the tail vein at room temperature and centrifuged at 3000 rpm for 10 min to obtain the prepared serum for stability testing.

[4] = Radiochemical stability of [18F]flumazenil in 30% ethanol after end of synthesis; format: physicochemical; conditions: amber glass vial, room temperature, 8 h after end of synthesis (EOS)

For COC(=O)c1ncn2c1CN(C)C(=O)c1cc(F)ccc1-2 [Metabolite M1], the M1 formation ([1]; flumazenil incubated in rat liver homogenate 0–250 min) was “relatively low amount”.

For CN1Cc2c(C(=O)O)ncn2-c2ccc(F)cc2C1=O [Metabolite M2], the “peak area of M2 increased by” value ([2]; up to 120 min incubation) was 72%.

With CN1Cc2c(C(=O)OCCO)ncn2-c2ccc(F)cc2C1=O [Metabolite M3] the “change of peak area of M3” value ([2]; up to 120 min incubation) was “No significant increase”.

In the case of CCOC(=O)c1ncn2c1CN(C)C(=O)c1cc([18F])ccc1-2 [[^18F]flumazenil], the “Radiochemical Purity (RCP, %) in serum” value ([3]; 0 min) is reported as 95.76%, the “Radiochemical Purity (RCP, %) in serum” value ([3]; 5 min) is reported as 93.28% and the “Radiochemical Purity (RCP, %) in serum” value ([3]; 10 min) is reported as 91.07%. The “Radiochemical Purity (RCP, %) in serum” value ([3]; 30 min) was 87.46%, the “Radiochemical Purity (RCP, %) in serum” value ([3]; 60 min) was 85.68% and the “Radiochemical Purity (RCP, %) in serum” value ([3]; 120 min) was 79.95%. For the same compound, the “Radiochemical Purity (RCP, %) in serum” value ([3]; 240 min) was 72.13%, the “intact [18F]flumazenil in serum” value ([3]; up to 1 h of incubation, regular conditions) was over 85% and the “radiochemical purity in 30% ethanol” value [4] was over 90%. The “biotransformed metabolites in metabolism analysis” value ([1]; after 30 min, as worded in conclusions) was “about 50%”.

For CCOC(=O)c1ncn2c1CN(C)C(=O)c1cc(F)ccc1-2 [flumazenil, ethyl 8-fluoro-5-methyl-6-oxo-5,6-dihydro-4H-benzo[f]imidazo [1,5-a] [1, 4]diazepine-3-carboxylate], the “flumazenil detected, of the initial amount” value ([2]; 120 min incubation) was “approximately 22%” and the “parent drug biotransformed (parent peak area)” value ([1]; rat liver homogenate, 37 °C, 4 h (240 min)) was “approximately 65%”.
